± gives the standard deviation of the averaged measurements.
What was measured:
BEZ-235 = compound: Cn1c(=O)n(-c2ccc(C(C)(C)C#N)cc2)c2c3cc(-c4cnc5ccccc5c4)ccc3ncc21 [BEZ-235]; test: surviving fraction relative to DMSO-only wells; higher = less growth inhibition; settings: exposure time: 5 days
Method in brief: (§1)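 Tumour cell lines in log phase were plated in 384-well plates at 250–500 cells per well, then, after 24 hours, exposed continuously for five days to inhibitors at 0.5, 1, 5, 10, 50, 100, 500 and 1000 nM. Viability came from CellTiter-Glo luminescence, and surviving fraction is that signal normalised to the median of DMSO-only wells. Plates were read after 10 minutes at room temperature, and each line, screened three times, was kept only when replicate Pearson r was >0.7 and median Z' was >0.3.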

LENVATINIB = compound: COc1cc2nccc(Oc3ccc(NC(=O)NC4CC4)c(Cl)c3)c2cc1C(N)=O [LENVATINIB]; test: as above; settings: exposure time: 5 days
Method in brief: as §1

| Test System | surviving fraction (BEZ-235; 0.5 nM) | surviving fraction (BEZ-235; 1 nM) | surviving fraction (BEZ-235; 5 nM) | surviving fraction (BEZ-235; 10 nM) | surviving fraction (BEZ-235; 50 nM) | surviving fraction (BEZ-235; 100 nM) | surviving fraction (BEZ-235; 500 nM) | surviving fraction (BEZ-235; 1000 nM) | surviving fraction (LENVATINIB; 0.5 nM) | surviving fraction (LENVATINIB; 1 nM) | surviving fraction (LENVATINIB; 5 nM) | surviving fraction (LENVATINIB; 10 nM) | surviving fraction (LENVATINIB; 50 nM) | surviving fraction (LENVATINIB; 100 nM) | surviving fraction (LENVATINIB; 500 nM) | surviving fraction (LENVATINIB; 1000 nM) |
| --- | --- | --- | --- | --- | --- | --- | --- | --- | --- | --- | --- | --- | --- | --- | --- | --- |
| SG27 HEADNECK | 0.989 ± 0.032 | 1.06 ± 0.041 | 0.888 ± 0.063 | 1.04 ± 0.049 | 0.91 ± 0.084 | 0.908 ± 0.065 | 0.717 ± 0.061 | 0.611 ± 0.04 | 1.15 ± 0.18 | 1.11 ± 0.028 | 1.12 ± 0.093 | 1.1 ± 0.052 | 1.04 ± 0.21 | 0.985 ± 0.13 | 0.928 ± 0.025 | 0.957 ± 0.055 |
| SG28 HEADNECK | 1.13 ± 0.053 | 1.09 ± 0.085 | 0.945 ± 0.2 | 0.965 ± 0.063 | 0.762 ± 0.053 | 0.632 ± 0.087 | 0.459 ± 0.039 | 0.342 ± 0.032 | 1.01 ± 0.091 | 1.06 ± 0.058 | 1.04 ± 0.011 | 1.08 ± 0.072 | 1.09 ± 0.097 | 0.966 ± 0.069 | 1.1 ± 0.069 | 1.08 ± 0.097 |
| SG31 HEADNECK | 1.1 ± 0.15 | 1.138 ± 0.0095 | 0.946 ± 0.091 | 1.02 ± 0.15 | 0.602 ± 0.088 | 0.569 ± 0.042 | 0.354 ± 0.029 | 0.289 ± 0.028 | 1.04 ± 0.17 | 1.17 ± 0.15 | 0.975 ± 0.3 | 0.977 ± 0.066 | 0.985 ± 0.12 | 0.967 ± 0.059 | 1.24 ± 0.09 | 1.12 ± 0.2 |
| SG32 HEADNECK | 1.1 ± 0.18 | 1.03 ± 0.1 | 1.42 ± 0.26 | 1.25 ± 0.13 | 0.861 ± 0.061 | 0.497 ± 0.083 | 0.255 ± 0.013 | 0.176 ± 0.026 | 1.21 ± 0.15 | 1.38 ± 0.028 | 1.15 ± 0.14 | 1.13 ± 0.2 | 1.05 ± 0.15 | 1.12 ± 0.2 | 1.41 ± 0.35 | 1.15 ± 0.12 |
| SG43 HEADNECK | 0.984 ± 0.18 | 1.23 ± 0.35 | 0.946 ± 0.1 | 0.956 ± 0.048 | 0.763 ± 0.12 | 0.77 ± 0.11 | 0.555 ± 0.037 | 0.36 ± 0.036 | 0.959 ± 0.18 | 1.01 ± 0.3 | 0.772 ± 0.11 | 0.842 ± 0.098 | 0.84 ± 0.14 | 0.93 ± 0.24 | 1.13 ± 0.17 | 1.09 ± 0.11 |
| SIHA CERVIX | 1.08 ± 0.1 | 1.14 ± 0.099 | 1.07 ± 0.044 | 1.03 ± 0.046 | 0.642 ± 0.064 | 0.485 ± 0.029 | 0.237 ± 0.008 | 0.222 ± 0.016 | 1.07 ± 0.016 | 1.1 ± 0.04 | 1.12 ± 0.049 | 1.11 ± 0.085 | 1.2 ± 0.14 | 1.18 ± 0.05 | 1.04 ± 0.13 | 0.97 ± 0.035 |
| SJSA1 BONE | 1.07 ± 0.064 | 1.04 ± 0.05 | 1.035 ± 0.004 | 1.02 ± 0.098 | 0.803 ± 0.031 | 0.623 ± 0.013 | 0.249 ± 0.015 | 0.206 ± 0.012 | 1.04 ± 0.034 | 1.02 ± 0.034 | 1.09 ± 0.087 | 1.09 ± 0.051 | 1.15 ± 0.014 | 1.07 ± 0.029 | 1.03 ± 0.022 | 0.997 ± 0.015 |
| SKBR3 BREAST | 1.07 ± 0.18 | 0.925 ± 0.035 | 0.88 ± 0.046 | 1.07 ± 0.018 | 0.786 ± 0.097 | 0.564 ± 0.039 | 0.141 ± 0.014 | 0.116 ± 0.0092 | 1 ± 0.18 | 1.08 ± 0.11 | 1.04 ± 0.15 | 1.06 ± 0.099 | 1.05 ± 0.19 | 1.16 ± 0.11 | 1.1 ± 0.068 | 0.944 ± 0.17 |
| SNU475 LIVER | 1.03 ± 0.038 | 1 ± 0.07 | 0.921 ± 0.036 | 0.932 ± 0.039 | 0.423 ± 0.018 | 0.285 ± 0.0051 | 0.137 ± 0.015 | 0.148 ± 0.0081 | 1.04 ± 0.069 | 1.04 ± 0.042 | 1.02 ± 0.07 | 1.03 ± 0.03 | 0.971 ± 0.045 | 1.03 ± 0.018 | 0.995 ± 0.037 | 1 ± 0.016 |
| SUM44 BREAST | 1.03 ± 0.046 | 1.02 ± 0.067 | 1.04 ± 0.025 | 0.972 ± 0.021 | 0.724 ± 0.026 | 0.422 ± 0.072 | 0.104 ± 0.0081 | 0.099 ± 0.017 | 1.01 ± 0.06 | 1.03 ± 0.054 | 1.03 ± 0.048 | 1.04 ± 0.018 | 1.05 ± 0.044 | 1.07 ± 0.052 | 1.03 ± 0.029 | 1.01 ± 0.015 |
| SUM149 BREAST | 1.11 ± 0.11 | 1.15 ± 0.044 | 1.04 ± 0.018 | 1 ± 0.059 | 0.715 ± 0.04 | 0.587 ± 0.024 | 0.153 ± 0.0052 | 0.108 ± 0.011 | 1.07 ± 0.12 | 1.04 ± 0.061 | 1.05 ± 0.025 | 1.02 ± 0.16 | 1.04 ± 0.076 | 1.01 ± 0.066 | 0.992 ± 0.06 | 0.965 ± 0.084 |
| SUM149.B1*.S BREAST | 1.11 ± 0.041 | 1.12 ± 0.049 | 1.14 ± 0.038 | 1.12 ± 0.022 | 1.039 ± 0.0098 | 0.969 ± 0.072 | 0.376 ± 0.028 | 0.21 ± 0.0038 | 1.11 ± 0.031 | 1.15 ± 0.018 | 1.15 ± 0.03 | 1.11 ± 0.044 | 1.19 ± 0.029 | 1.15 ± 0.031 | 1.17 ± 0.052 | 1.14 ± 0.042 |
| SUM159 BREAST | 1.11 ± 0.11 | 1.11 ± 0.099 | 1.1 ± 0.065 | 1.09 ± 0.069 | 0.922 ± 0.062 | 0.635 ± 0.065 | 0.228 ± 0.014 | 0.168 ± 0.015 | 1.16 ± 0.15 | 1.15 ± 0.11 | 1.11 ± 0.096 | 1.13 ± 0.12 | 1.08 ± 0.034 | 1.04 ± 0.088 | 1.08 ± 0.021 | 1.08 ± 0.017 |
| SYO1 SYNOVIAL | 1.02 ± 0.036 | 0.973 ± 0.054 | 0.942 ± 0.065 | 0.96 ± 0.023 | 0.705 ± 0.04 | 0.457 ± 0.017 | 0.196 ± 0.011 | 0.117 ± 0.0081 | 0.942 ± 0.11 | 0.962 ± 0.025 | 0.918 ± 0.017 | 0.889 ± 0.042 | 0.768 ± 0.079 | 0.667 ± 0.042 | 0.528 ± 0.031 | 0.504 ± 0.02 |
| T47D BREAST | 1.07 ± 0.034 | 1.05 ± 0.015 | 1.04 ± 0.019 | 1.02 ± 0.016 | 0.89 ± 0.015 | 0.7209 ± 0.0056 | 0.47 ± 0.016 | 0.312 ± 0.0077 | 1.09 ± 0.018 | 1.09 ± 0.018 | 1.08 ± 0.044 | 1.06 ± 0.057 | 1.1 ± 0.028 | 1.13 ± 0.046 | 1.12 ± 0.064 | 1.1 ± 0.023 |
| U2OS BONE | 1.03 ± 0.049 | 1.058 ± 0.0092 | 1.06 ± 0.011 | 1.06 ± 0.013 | 0.9133 ± 0.0045 | 0.78 ± 0.038 | 0.293 ± 0.006 | 0.256 ± 0.013 | 1.01 ± 0.038 | 0.99 ± 0.045 | 1.04 ± 0.039 | 1.02 ± 0.027 | 1.02 ± 0.019 | 1.02 ± 0.033 | 0.891 ± 0.051 | 0.832 ± 0.027 |
| VCAP PROSTATE | 1.08 ± 0.1 | 0.994 ± 0.09 | 1.12 ± 0.082 | 1.13 ± 0.12 | 0.902 ± 0.1 | 0.867 ± 0.056 | 0.422 ± 0.053 | 0.402 ± 0.0052 | 1.03 ± 0.038 | 1.04 ± 0.12 | 1.17 ± 0.15 | 1.12 ± 0.1 | 1.1 ± 0.11 | 1.17 ± 0.079 | 0.962 ± 0.097 | 0.97 ± 0.078 |
| VP229 BREAST | 1.36 ± 0.32 | 1.22 ± 0.075 | 1.25 ± 0.089 | 1.04 ± 0.035 | 0.969 ± 0.094 | 0.751 ± 0.025 | 0.268 ± 0.008 | 0.159 ± 0.008 | 1.29 ± 0.23 | 1.14 ± 0.17 | 1.21 ± 0.093 | 0.969 ± 0.044 | 1.36 ± 0.17 | 1.34 ± 0.14 | 1.47 ± 0.13 | 1.42 ± 0.081 |
| YAMATO SYNOVIAL | 1.28 ± 0.087 | 1.26 ± 0.12 | 1.34 ± 0.084 | 1.12 ± 0.048 | 0.923 ± 0.043 | 0.849 ± 0.12 | 0.47 ± 0.038 | 0.429 ± 0.016 | 1.18 ± 0.073 | 1.15 ± 0.05 | 1.13 ± 0.12 | 1.06 ± 0.072 | 1.1 ± 0.062 | 1.14 ± 0.13 | 0.953 ± 0.08 | 0.949 ± 0.017 |
| ZR751 BREAST | 1.03 ± 0.1 | 1.03 ± 0.23 | 0.912 ± 0.12 | 0.907 ± 0.093 | 0.725 ± 0.063 | 0.519 ± 0.1 | 0.226 ± 0.011 | 0.176 ± 0.011 | 1.04 ± 0.12 | 0.964 ± 0.15 | 0.926 ± 0.035 | 0.84 ± 0.071 | 1.06 ± 0.092 | 1.1 ± 0.088 | 0.915 ± 0.23 | 1.04 ± 0.022 |

— the supplement of paper PMC6045584
